From US10954216B2, “BMP-signal-inhibiting compound” (RIKEN, priority 2016, dated 2021)
Read-outs that look alike come from different tables or passages of the source.

Columns and labels:
[1] = system: BMP signal in MDA-231-D-BREFluc/Rluc cells; assay: BMP signal inhibitory effect (AlphaScreen SureFire SMAD1 p-Ser463/465, BMP-6 stimulation); type: cell-based
Procedure, shortened: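 Read-out was phospho-SMAD1 (Ser463/465) by AlphaScreen SureFire after 30 min BMP-6 stimulation at 37° C. Before stimulation, MDA-231-D-BREFluc/Rluc cells were incubated with test compound at 37° C for 2 h.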

human ALK2 = human ALK2 (Homo sapiens (Human), UniProt Q04771); assay: ALK2 enzyme inhibitory effect (33P-ATP kinase assay, Reaction Biology); type: biochemical; conditions: ALK2, 10 μM ATP, 20 μM casein
Chain of human ALK2 (Q04771 21-509): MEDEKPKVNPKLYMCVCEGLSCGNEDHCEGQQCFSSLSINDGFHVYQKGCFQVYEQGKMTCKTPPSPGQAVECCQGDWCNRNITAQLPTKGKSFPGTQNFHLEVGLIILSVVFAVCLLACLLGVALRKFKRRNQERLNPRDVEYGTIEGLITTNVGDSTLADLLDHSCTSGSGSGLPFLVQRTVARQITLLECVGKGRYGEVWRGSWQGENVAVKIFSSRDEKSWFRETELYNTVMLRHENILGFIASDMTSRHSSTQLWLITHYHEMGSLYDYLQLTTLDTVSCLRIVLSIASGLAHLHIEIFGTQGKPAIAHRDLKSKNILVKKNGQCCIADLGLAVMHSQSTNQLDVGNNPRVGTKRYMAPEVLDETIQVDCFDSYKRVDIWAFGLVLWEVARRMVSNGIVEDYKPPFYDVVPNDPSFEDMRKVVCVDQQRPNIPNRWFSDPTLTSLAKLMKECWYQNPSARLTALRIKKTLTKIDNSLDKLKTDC
Source text: (§1) ALK Enzyme Inhibitory Effect
(§2) Evaluation conditions were described in the following web pages. http://www.reactionbiology.corrilwebapps/site/Kinase_Assay_Protocol.aspx http://www.reactionbiology.corrilwebapps/site/KinaseDetail.aspx?page=Kinases&id=1

human ALK3 = human ALK3 (Homo sapiens (Human), UniProt P36894); assay: ALK3 enzyme inhibitory effect (33P-ATP kinase assay, Reaction Biology); type: biochemical; conditions: for inhibition at 0.3 µM: read-out: Inhibition rate at 300 nM; for inhibition at 0.37 µM: ALK3, test compound 370 nM (asterisk footnote), read-out: inhibition rate at 370 nM
Chain of human ALK3 (P36894 24-532): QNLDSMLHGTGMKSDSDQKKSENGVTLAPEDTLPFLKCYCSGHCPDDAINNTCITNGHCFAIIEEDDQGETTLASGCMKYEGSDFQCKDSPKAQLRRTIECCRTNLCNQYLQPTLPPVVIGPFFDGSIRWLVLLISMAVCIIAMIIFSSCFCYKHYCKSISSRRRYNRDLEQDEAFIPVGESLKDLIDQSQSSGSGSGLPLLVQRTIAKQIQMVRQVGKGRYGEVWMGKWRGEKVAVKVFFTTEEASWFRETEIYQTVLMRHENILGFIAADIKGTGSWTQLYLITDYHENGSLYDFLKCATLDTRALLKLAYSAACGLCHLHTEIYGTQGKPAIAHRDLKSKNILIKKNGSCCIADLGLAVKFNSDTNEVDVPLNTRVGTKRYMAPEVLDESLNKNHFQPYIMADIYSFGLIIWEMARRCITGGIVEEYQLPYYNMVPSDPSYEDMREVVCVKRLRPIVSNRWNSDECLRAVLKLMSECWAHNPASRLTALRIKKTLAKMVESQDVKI
Source text: as §1, §2

human ALK6 = human ALK6 (Homo sapiens (Human), UniProt O00238); assay: ALK6 enzyme inhibitory effect (33P-ATP kinase assay, Reaction Biology); type: biochemical; conditions: for inhibition at 0.3 µM: read-out: Inhibition rate at 300 nM; for inhibition at 0.37 µM: ALK6, test compound 370 nM (asterisk footnote), read-out: inhibition rate at 370 nM
Chain of human ALK6 (O00238 14-502): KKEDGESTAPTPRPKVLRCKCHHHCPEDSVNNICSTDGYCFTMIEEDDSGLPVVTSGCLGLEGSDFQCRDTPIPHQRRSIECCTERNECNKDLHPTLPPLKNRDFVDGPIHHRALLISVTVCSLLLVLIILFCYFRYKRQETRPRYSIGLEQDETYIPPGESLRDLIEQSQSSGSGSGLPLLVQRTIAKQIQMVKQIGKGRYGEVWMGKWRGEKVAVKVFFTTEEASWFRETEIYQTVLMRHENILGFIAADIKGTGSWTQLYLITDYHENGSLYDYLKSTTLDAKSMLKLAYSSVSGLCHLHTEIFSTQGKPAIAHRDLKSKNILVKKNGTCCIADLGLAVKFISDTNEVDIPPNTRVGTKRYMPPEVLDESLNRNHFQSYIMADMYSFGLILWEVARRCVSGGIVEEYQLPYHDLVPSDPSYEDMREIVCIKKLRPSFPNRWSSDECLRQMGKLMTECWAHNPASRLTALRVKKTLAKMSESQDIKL
Source text: as §1, §2

[2] = BMP-6 stimulated MDA-231-D-BREFluc/Rluc cells, phospho-SMAD1 AlphaScreen, read-out: IC50

Row | SMILES | IC50 [1, 2] [nM] | IC50 (human ALK2) [nM] | inhibition at 0.3 µM (human ALK3; ALK3, test compound 300 nM) [%] | inhibition at 0.3 µM (human ALK6; ALK6, test compound 300 nM) [%] | inhibition at 0.37 µM (human ALK3) [%] | inhibition at 0.37 µM (human ALK6) [%] | IC50 [1] [nM] | inhibition at 0.3 µM (human ALK3) [%] | inhibition at 0.3 µM (human ALK6) [%]
1 | CCn1cc(-c2ccnc(Nc3ccc(C(=O)N4CCN(c5ccc(F)cc5)CC4)cc3)n2)c(-c2cccnc2)n1 [Example 3, (4-((4-(1-ethyl-3-(pyridin-3-yl)-1H-pyrazol-4-yl)pyrimidin-2-yl)amino)phenyl)(4-(4-fluorophenyl)piperazin-1-yl)methanone] | 26.7 | 24.2 | 52 | 79.6 |  |  |  |  | 
2 | CCn1cc(-c2ccnc(Nc3ccc(N4CCN(C5COC5)CC4)cc3)n2)c(-c2cccnc2)n1 [Example 15, 4-(1-ethyl-3-(pyridin-3-yl)-1H-pyrazol-4-yl)-N-(4-(4-(oxetan-3-yl)piperazin-1-yl)phenyl)pyrimidin-2-amine] | 30.1 | 45 | 51.4 | 90.2 |  |  |  |  | 
3 | CCn1cc(-c2ccnc(Nc3ccc(N4CCN(CCOC)CC4)cc3)n2)c(-c2cccnc2)n1 [Example 17, 4-(1-ethyl-3-(pyridin-3-yl)-1H-pyrazol-4-yl)-N-(4-(4-(2-methoxyethyl)piperazin-1-yl)phenyl)pyrimidin-2-amine] | 22.6 | 54 | 50.4 | 88 |  |  |  |  | 
4 | CCn1cc(-c2ccnc(Nc3ccc(N4CCN(Cc5ccccc5)CC4)cc3)n2)c(-c2cccnc2)n1 [Example 19, N-(4-(4-benzylpiperazin-1-yl)phenyl)-4-(1-ethyl-3-(pyridin-3-yl)-1H-pyrazol-4-yl)pyrimidin-2-amine] | 23.3 | 25 | 59.3 | 88.4 |  |  |  |  | 
5 | CCn1cc(-c2ccnc(Nc3ccc(N4CCCCC4)cc3)n2)c(-c2cccnc2)n1 [Example 49, 4-(1-ethyl-3-(pyridin-3-yl)-1H-pyrazol-4-yl)-N-(4-(piperidin-1-yl)phenyl)pyrimidin-2-amine] | 28.1 | 67 | 52.2 | 91.6 |  |  |  |  | 
6 | COCCn1cc(-c2ccnc(Nc3ccc(N4CCNCC4)cc3)n2)c(-c2cccnc2)n1 [Example 71, 4-(1-(2-methoxyethyl)-3-(pyridin-3-yl)-1H-pyrazol-4-yl)-N-(4-(piperazin-1-yl)phenyl)pyrimidin-2-amine] | 22.8 | 40 | 48 | 76 |  |  |  |  | 
7 | CCn1cc(-c2ccnc(Nc3ccc4c(c3)CCN(C(C)=O)C4)n2)c(-c2cccnc2)n1 [Example 75, 1-(6-((4-(1-Ethyl-3-(pyridin-3-yl)-1H-pyrazol-4-yl)pyrimidin-2-yl)amino)-3,4-dihydroisoquinolin-2(1H)-yl)ethan-1-one] | 14.8 | 28 | 67.5 | 92.9 |  |  |  |  | 
8 | c1cncc(-c2nn(C3COC3)cc2-c2ccnc(Nc3ccc(N4CCN(C5COC5)CC4)cc3)n2)c1 [Example 101, 4-(1-(oxetan-3-yl)-3-(pyridin-3-yl)-1H-pyrazol-4-yl)-N-(4-(4-(oxetan-3-yl)piperazin-1-yl)phenyl)pyrimidin-2-amine] | 70.8 | 18 |  |  | 48.8 | 70.4 |  |  | 
9 | CCn1cc(-c2ccnc(Nc3ccc(N4CCN(CC(C)(C)O)CC4)cc3)n2)c(-c2cccnc2)n1 [Example 104, 1-(4-(4-((4-(1-ethyl-3-(pyridin-3-yl)-1H-pyrazol-4-yl)pyrimidin-2-yl)amino)phenyl)piperazin-1-yl)-2-methylpropan-2-ol] | 16.4 | 13.2 | 65.8 | 93.5 |  |  |  |  | 
10 | CC(C)(C)n1cc(-c2ccnc(Nc3ccc(N4CCNCC4)cc3)n2)c(-c2cccnc2)n1 [Example 135] | 11.7 | 54 | 60 | 77 |  |  |  |  | 
11 | c1cncc(-c2nn(C3COC3)cc2-c2ccnc(Nc3ccc(N4CCNCC4)cc3)n2)c1 [Example 137, 4-(1-(Oxetan-3-yl)-3-(pyridin-3-yl)-1H-pyrazol-4-yl)-N-(4-(piperazin-1-yl)phenyl)pyrimidin-2-amine] | 35.6 | 46.2 | 47.9 | 85.3 |  |  |  |  | 
12 | c1ccc(CCn2cc(-c3ccnc(Nc4ccc(N5CCNCC5)cc4)n3)c(-c3cccnc3)n2)cc1 [Example 142, 4-(1-Phenethyl-3-(pyridin-3-yl)-1H-pyrazol-4-yl)-N-(4-(piperazin-1-yl)phenyl)pyrimidin-2-amine] | 7.3 | 87.2 | 62.7 | 92.6 |  |  |  |  | 
13 | FC(F)Cn1cc(-c2ccnc(Nc3ccc(N4CCNCC4)cc3)n2)c(-c2cccnc2)n1 [Example 149, 4-(1-(2,2-Difluoroethyl)-3-(pyridin-3-yl)-1H-pyrazol-4-yl)-N-(4-(piperazin-1-yl)phenyl)pyrimidin-2-amine] | 9.1 | 62.5 | 63.5 | 86.5 |  |  |  |  | 
14 | CCn1cc(-c2ccnc(Nc3ccc(N4CCNCC4)nc3)n2)c(-c2cccnc2)n1 [Example 155, 4-(1-Ethyl-3-(pyridin-3-yl)-1H-pyrazol-4-yl)-N-(6-(piperazin-1-yl)pyridin-3-yl)pyrimidin-2-amine] | 8.5 | 57 |  |  | 48.8 | 86.5 |  |  | 
15 | CCn1cc(-c2ccnc(Nc3ccc(C4CC5CCC(C4)N5)cc3)n2)c(-c2cccnc2)n1 (centres unmarked) [Example 163, N-(4-(8-Azabicyclo [3.2.1]octan-3-yl)phenyl)-4-(1-ethyl-3-(pyridin-3-yl)-1H-pyrazol-4-yl)pyrimidin-2-amine] |  |  |  |  |  |  | 4.9 | 47.6 | 96.2
16 | CCn1cc(-c2ccnc(Nc3ccc(-c4cnn(C5CCNCC5)c4)cc3)n2)c(-c2cccnc2)n1 [Example 167, 4-(1-Ethyl-3-(pyridin-3-yl)-1H-pyrazol-4-yl)-N-(4-(1-(piperidin-4-yl)-1H-pyrazol-4-yl)phenyl)pyrimidin-2-amine] | 12.4 | 36.1 | 67.5 | 92.2 |  |  |  |  | 
17 | CCn1cc(-c2ccnc(Nc3ccc4c(c3)CCN(C(=O)CO)C4)n2)c(-c2cccnc2)n1 [Example 175, 1-(6-((4-(1-Ethyl-3-(pyridin-3-yl)-1H-pyrazol-4-yl)pyrimidin-2-yl)amino)-3,4-dihydroisoquinolin-2(1H)-yl)-2-hydroxyethan-1-one] | 10.8 | 46.8 | 74.6 | 93.6 |  |  |  |  | 

More lines, main results first:

Row | IC50 [1, 2] [nM] | IC50 (human ALK2) [nM] | inhibition at 0.3 µM (human ALK3; ALK3, test compound 300 nM) [%] | inhibition at 0.3 µM (human ALK6; ALK6, test compound 300 nM) [%] | inhibition at 0.37 µM (human ALK3) [%] | inhibition at 0.37 µM (human ALK6) [%] | SMILES | IC50 [1] [nM] | inhibition at 0.3 µM (human ALK3) [%] | inhibition at 0.3 µM (human ALK6) [%]
18 | 4 | 15 | 59 | 85 |  |  | CCn1cc(-c2ccnc(Nc3ccc4c(c3)CCN(CCOC)C4)n2)c(-c2cccnc2)n1 [Example 126, N-(4-(1-Ethyl-3-(pyridin-3-yl)-1H-pyrazol-4-yl)pyrimidin-2-yl)-2-(2-methoxyethyl)-1,2,3,4-tetrahydroisoquinolin-6-amine] |  |  | 
19 | 1.8 | 33 | 55.7 | 92.2 |  |  | CCn1cc(-c2ccnc(Nc3ccc4c(c3)CCN(C)C4)n2)c(-c2cccnc2)n1 [Example 129, N-(4-(1-Ethyl-3-(pyridin-3-yl)-1H-pyrazol-4-yl)pyrimidin-2-yl)-2-methyl-1,2,3,4-tetrahydroisoquinolin-6-amine] |  |  | 
20 | 3.6 |  |  |  | 56.1 | 93 | CCn1cc(-c2ccnc(Nc3ccc(N4CCNCC4)cc3)n2)c(-c2cccnc2)n1 [Example 151, 4-(1-Ethyl-3-(pyridin-3-yl)-1H-pyrazol-4-yl)-N-(4-(piperazin-1-yl)phenyl)pyrimidin-2-amine] |  |  | 
21 | 7.2 | 15 | 53 | 82 |  |  | CCn1cc(-c2ccnc(Nc3ccc(N4CCNCC4)c(F)c3)n2)c(-c2cccnc2)n1 [Example 152, 4-(1-Ethyl-3-(pyridin-3-yl)-1H-pyrazol-4-yl)-N-(3-fluoro-4-(piperazin-1-yl)phenyl)pyrimidin-2-amine] |  |  | 
22 | 4.5 | 25 | 49.5 | 94.2 |  |  | CCn1cc(-c2ccnc(Nc3ccc(C4CCNCC4)cc3)n2)c(-c2cccnc2)n1 [Example 162, 4-(1-Ethyl-3-(pyridin-3-yl)-1H-pyrazol-4-yl)-N-(4-(piperidin-4-yl)phenyl)pyrimidin-2-amine] |  |  | 
23 | 1.5 | 43 | 67.3 | 93.9 |  |  | CCn1cc(-c2ccnc(Nc3ccc4c(c3)CCNC4)n2)c(-c2cccnc2)n1 [Example 168, N-(4-(1-ethyl-3-(pyridin-3-yl)-1H-pyrazol-4-yl)pyrimidin-2-yl)-1,2,3,4-tetrahydroisoquinolin-6-amine] |  |  | 
24 | 1.6 | 18 | 66.6 | 96.5 |  |  | CCn1cc(-c2ccnc(Nc3ccc4c(c3)CNCC4)n2)c(-c2cccnc2)n1 [Example 169, N-(4-(1-ethyl-3-(pyridin-3-yl)-1H-pyrazol-4-yl)pyrimidin-2-yl)-1,2,3,4-tetrahydroisoquinolin-7-amine] |  |  | 
25 | 1.3 | 17 | 67.1 | 98.3 |  |  | CCn1cc(-c2ccnc(Nc3ccc4c(c3)CCNCC4)n2)c(-c2cccnc2)n1 [Example 171, N-(4-(1-Ethyl-3-(pyridin-3-yl)-1H-pyrazol-4-yl)pyrimidin-2-yl)-2,3,4,5-tetrahydro-1H-benzo [d] azepin-7-amine] |  |  | 
